Assay results: patent US20150065509A1 (priority 2012, published 2015)
Values after ≈ are worked out from the molar mass of the structure shown. Read-outs that look alike come from different tables or passages of the source.

Experiments:
B. anthracis Sterne = test: microbe, parasite or virus in culture; format: cell-based; conditions: for MIC: Bacillus anthracis, 16 h, read-out: MIC (Minimum Inhibitory Concentration)
[1] = biological target: dihydrofolate reductase (DHFR) (Bacillus anthracis, UniProt Q81R22); test: biochemical; format: biochemical, B. anthracis Sterne
dihydrofolate reductase (DHFR), sequence (Q81R22 1-162): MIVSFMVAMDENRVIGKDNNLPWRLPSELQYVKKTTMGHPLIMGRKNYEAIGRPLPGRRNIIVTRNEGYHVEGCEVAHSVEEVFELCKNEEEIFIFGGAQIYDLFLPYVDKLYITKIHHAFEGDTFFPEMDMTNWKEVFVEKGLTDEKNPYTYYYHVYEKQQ

Compound | MIC (Minimum Inhibitory Concentration) (B. anthracis Sterne) [µg/mL] | IC50 ([1]; read-out: IC50) [µM] | MIC (B. anthracis Sterne) [µg/mL] | IC50 [1] [µM] | melting point [°C]
COc1cc(Cc2c(C)nc(N)nc2N)cc(/C=C/C(=O)N2N=Cc3ccccc3C2C=C(C)C)c1OC (centres unmarked) [Compound 13, (E)-3-(5-((2,4-Diamino-6-methylpyrimidin-5-yl)methyl)-2,3-dimethoxyphenyl)-1-(isobutenylphthalazin-2(1H)-yl)prop-2-en-1-one] | 4000 (≈ 7.8 mM) | 0.102 |  |  | 
CCCC1c2ccccc2C=NN1C(=O)/C=C/c1cc(Cc2c(C)nc(N)nc2N)cc(OC)c1OC (centres unmarked) [Compound 10, (E)-3-(5-((2,4-Diamino-6-methylpyrimidin-5-yl)methyl)-2,3-dimethoxyphenyl)-1-(1-propyl-phthalazin-2(1H)-yl)prop-2-en-1-one] |  |  | 8000 (≈ 16 mM) | 0.517 | 137 to 138
CCCc1nc(N)nc(N)c1Cc1cc(/C=C/C(=O)N2N=Cc3ccccc3C2C=C(C)C)c(OC)c(OC)c1 (centres unmarked) [Compound 15, (E)-3-(5-((2,4-Diamino-6-propylpyrimidin-5-yl)methyl)-2,3-dimethoxyphenyl)-1-(isobutenylphthalazin-2(1H)-yl)prop-2-en-1-one] | 2000 (≈ 3.7 mM) | 18 |  |  | 
CCCc1nc(N)nc(N)c1Cc1cc(/C=C/C(=O)N2N=Cc3ccccc3C2CCC)c(OC)c(OC)c1 (centres unmarked) [Compound 12, (E)-3-(5-((2,4-Diamino-6-propylpyrimidin-5-yl)methyl)-2,3-dimethoxyphenyl)-1-(1-propyl-phthalazin-2(1H)-yl)prop-2-en-1-one] |  |  | 1000 (≈ 1.89 mM) | 17.1 | 140 to 141
CCc1nc(N)nc(N)c1Cc1cc(/C=C/C(=O)N2N=Cc3ccccc3C2C=C(C)C)c(OC)c(OC)c1 (centres unmarked) [Compound 14, (E)-3-(5-((2,4-Diamino-6-ethylpyrimidin-5-yl)methyl)-2,3-dimethoxyphenyl)-1-(isobutenylphthalazin-2(1H)-yl)prop-2-en-1-one] | 4000 (≈ 7.6 mM) | 0.181 |  |  | 
CCCC1c2ccccc2C=NN1C(=O)/C=C/c1cc(Cc2c(N)nc(N)nc2CC)cc(OC)c1OC (centres unmarked) [Compound 11, (E)-3-(5-((2,4-Diamino-6-ethylpyrimidin-5-yl)methyl)-2,3-dimethoxyphenyl)-1-(propyl-phthalazin-2(1H)-yl)prop-2-en-1-one] | 4000 (≈ 7.77 mM) | 17.4 |  |  | 
